Activity calls are given as the source filed them. The rule behind the calls is not given here.

Experimental findings from ChEMBL document CHEMBL1949656, “Characterization of a 1,4-disubstituted 1,2,3-triazole binding to T box antiterminator RNA” (Bioorg Med Chem, 2012) are described below.

In assay [1] the target is Nucleic Acid. As to the kind of experiment: Binding affinity to AM1A T box antiterminator model RNA at 100 to 300 uM after 130 mins by FRET assay. It counts as nucleic-acid assay.
Assay [2] has as its target Nucleic Acid. Put plainly: Binding affinity to C11U T box antiterminator model RNA at 100 to 300 uM after 130 mins by FRET assay. It counts as nucleic-acid assay.
Assay [3] has as its system Nucleic Acid. As to the kind of experiment: Binding affinity to AM1A T box antiterminator model RNA assessed as change in melting temperature at 100 uM by UV-thermal denaturation method. The assay is classed as nucleic-acid assay.
Assay [4] has as its system Nucleic Acid. Put plainly: Stabilization of AM1A T box antiterminator model RNA assessed as effect on flexibility of RNA after 40 hrs by autoradiography based in-line probing assay. It counts as nucleic-acid assay.
The subject of assay [5] is Nucleic Acid. As to the kind of experiment: Stabilization of AM1A T box antiterminator model RNA assessed as reduction in flexibility at U6-C12 bulge region of RNA after 40 hrs by autoradiography based in-line probing assay. It counts as nucleic-acid assay.
For assay [6], the system named is Nucleic Acid. Put plainly: Binding affinity to AM1A T box antiterminator model RNA assessed as melting temperature at 100 uM by UV-thermal denaturation method (reference value: 51 deg C).

Usually Kd stands for a measure of binding affinity in units of concentration. The Tm is the temperature at the midpoint of the melting transition. With `CN(CCCc1ccccc1)Cc1cn(CC(O)COC(=O)NCc2ccccc2)nn1` (stereo unspecified), the Kd at Nucleic Acid [1] was 56 µM; at Nucleic Acid [2] it was 59 µM. For the same molecule, the Tm(app) in the assay with Nucleic Acid [3] came out at 69 °C. Moreover, the result in the assay with Nucleic Acid [4] and in the assay on Nucleic Acid [5] was Active. Further, in the assay on Nucleic Acid [6], the Tm was found to be 52 °C.
